What was measured:
PDGFRβ = PDGFRβ localisation: immunofluorescence and immunoblot of cell fractions; format: cell-based, human
Description: FIGS. 1A-1J. IL-15 induces PDGFRβ expression in human NK cells. (A-C) NK cells were purified from PBMCs of healthy donors and stimulated with IL-15 (10 ng/ml) for 24 h. Expression levels of PDGFRα and PDGFRβ were examined by flow cytometry. Data shown are representative dot plots (A), percentages (B), and mean fluorescence intensity (MFI) of PDGFRβ in NK cells (C) (n=20). Resting NK cells were used as the control. (D-E) NK cells were treated with various doses of IL-15 for 24 h (D) or with the same dose of IL-15 (10 ng/ml) at the indicated times (E). Data shown are the percentages of PDGFRβ^+ NK cells among total NK cells (n=5). (F) Immunofluorescence analysis of PDGFRβ expression on resting and IL-15-treated NK cells. Sodium-potassium ATPase was used as a cell membrane marker. Bar=20 μm. (G) Expression of PDGFRβ in the cytoplasmic, nuclear, and cell membrane fractions of NK cells determined by immunoblotting. […] Expression levels of PDGFRβ were then determined by flow cytometry. […]
(§1) RNA was isolated using an RNeasy Mini Kit (QIAGEN) and reversely transcribed to cDNA with a PrimeScript RT Reagent Kit with gDNA Eraser (Takara Bio) according to the manufacturer's protocol. mRNA expression levels were analyzed using SYBR Green qPCR Master Mix and a QuantStudio 12K Flex Real-Time PCR System (both from Thermo Fisher Scientific). […]

murine NK cells = experiment: PDGFRβ expression in murine splenic NK cells, flow cytometry; format: cell-based, mouse
Description: FIGS. 7A-7F. […] Data shown are representative histograms and mean fluorescence intensity (MFI) of PDGFRα. […] Expression levels of PDGFRβ were examined by flow cytometry (n=6). […] Data shown are the percentages of PDGFRβ^+ NK cells among total NK cells (n=5). […] Data shown are representative histograms with MFI of PDGFRβ expression. (F) Expression levels of PDGFRβ on NK cells from IL-15 transgenic (Tg) mice were determined by flow cytometry. Data shown are representative histograms. Data represent three independent experiments.
Mouse NK cells were isolated from the spleen of C57BL/6J or IL-15 transgenic mice, using the EasySep Mouse NK Cell Isolation Kit ([…] Technologies) as previously described (11).
Cells were stained with the indicated cell-surface markers and/or fixed/permeabilized using a Fixation/Permeabilization Kit (eBioscience). For intracellular staining of IFN-γ and PDGF-D, 5 μg/ml Brefeldin A (BioLegend) was added for 4 h before cell harvest. Intracellular staining of Ki67 was performed by fixing and permeabilizing with the Foxp3/Transcription Factor Staining Kit (eBioscience). […] Data were analyzed using NovoExpress software (Agilent Technologies).

PDGFRB = PDGFRB mRNA levels by qPCR; format: cell-based, human; settings: primary NK cells, IL-15 10 ng/ml
Description: FIGS. 2A-2I. IL-15-induced PDGFRβ expression is mediated by PI3K/AKT signaling. (A-B) Primary NK cells were treated with IL-15 (10 ng/ml) for the indicated times. mRNA levels of PDGFRB at different time points (A) (n=3) or at 1 h (B) (n=10) were examined by qPCR. (C-D) Primary NK cells were pretreated with actinomycin D (ActD, 5., g/ml) (C) or cycloheximide (CHX, 20 μg/ml) (D) for 1 h, washed twice with RPMI-1640, and then treated with IL-15 (10 ng/ml) for 24 h. DMSO was used as a control. Expression levels of PDGFRβ were examined by flow cytometry (n=5). Data shown are representative histograms and percentage of inhibition with the equation: % inhibition=100×[1−(DMSO-inhibitor)/DMSO]. […] (G-I) Binding of p65 to the PDGFRB promoter in IL-15-treated NK cells (G) or resting NK cells (H) as determined by ChIP-qPCR or PCR (I) (n=3). […]
as §1

BCL-2, BCL-XL, and MCL-1 = experiment: Immunoblot of BCL-2, BCL-XL and MCL-1 in NK cells; format: cell-based, human; settings: 48 h

Row | Substance | PDGFRβ localisation by immunofluorescence (PDGFRβ; IL-15-treated versus resting NK cells) | PDGFRβ in cytoplasmic, nuclear and cell membrane fractions by immunoblotting (PDGFRβ; after stimulation by IL-15) | PDGFRβ on NK cells from IL-15 transgenic mice (murine NK cells; long-term IL-15 stimulation, IL-15 transgenic mice) | PDGFRβ expression in murine NK cells (murine NK cells; splenic NK cells of C57BL/6 mice, mouse cytokines 10 ng/ml, 24 h) | mRNA levels of the PDGFRB gene (PDGFRB) | expression levels of BCL-2, BCL-XL, and MCL-1 (BCL-2, BCL-XL, and MCL-1; IL-15 10 ng/ml and PDGF-D 50 ng/ml) | receptor dependence of the BCL-2, BCL-XL, and MCL-1 increase (BCL-2, BCL-XL, and MCL-1; with anti-NKp44 or anti-PDGFRβ)
1 | IL-15: recombinant human IL-15 (200-15); recombinant murine IL-15 in the mouse NK cell test | expressed on the membrane | enriched in the cytoplasm and translocated to the cell membrane | could not detect any PDGFRβ | did not express PDGFRβ | increased significantly | – | –
2 | PDGF-D: recombinant human PDGF-DD (1159-SB-025), R&D Systems | – | – | – | – | – | increased the expression levels | NKp44-independent but PDGFRβ-dependent

From US20250017964A1, “ENGINEERING OR INDUCING PDGF AND/OR PDGFR SIGNALING TO ENHANCE NK CELL THERAPY” (City of Hope, priority 2021, published 2025)
